Test systems include SF-268 CNS; MCF7 breast; NCI-H460 lung; A549 NSCLC; PC-3 prostate; SNB-75 CNS; SF-295 CNS; UO-31 renal; ACHN renal; EKVX NSCLC.
Test in all cases: NCI-60 cell line screen, 48 h

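Method: 48-hour compound exposure of cells in 96-well plates, five concentrations, linear interpolation of endpoints. Here, GI50 denotes the concentration required for 50% inhibition of growth. TGI marks complete inhibition of growth.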

Consider `NC(=O)CNc1ccc([As]=[As]c2ccc(NCC(N)=O)cc2)cc1` (stereo not given), for which the GI50 in the test on SF-268 CNS was 2.73 µM; in the test with MCF7 breast, 2.12 µM; with NCI-H460 lung it was 10.6 µM; with A549 NSCLC, 23.5 µM; in the test on PC-3 prostate it was 2.7 µM; in the test on SNB-75 CNS it was 1.73 µM. The GI50 in the test on SF-295 CNS is 8.91 µM; in the test on UO-31 renal, 8.21 µM; in the test with ACHN renal it was 11.6 µM; with EKVX NSCLC it was 4.83 µM. The TGI was 14 µM in the test on SF-268 CNS; 15.2 µM in the test on MCF7 breast; 35.4 µM in the test with NCI-H460 lung; greater than 100 µM in the test with A549 NSCLC; 22.7 µM in the test with PC-3 prostate; 9.13 µM in the test with SNB-75 CNS. Besides, the TGI with SF-295 CNS stood at 36.9 µM; in the test with UO-31 renal it was 24.5 µM; in the test with ACHN renal, 30.3 µM; in the test on EKVX NSCLC, 90.9 µM.
For the molecule `COc1ccc(-c2ccc(NNC(=O)c3ccc(F)cc3)nn2)cc1OC`, the GI50 with SF-268 CNS was 79.8 µM; in the test on MCF7 breast, 93.4 µM; in the test on NCI-H460 lung it was greater than 100 µM; in the test with A549 NSCLC it was 99.5 µM; with PC-3 prostate, 50.5 µM; in the test on SNB-75 CNS it was 26.9 µM. Further, the GI50 with SF-295 CNS is greater than 100 µM; in the test with UO-31 renal, 31.7 µM; with ACHN renal, greater than 100 µM; with EKVX NSCLC, greater than 100 µM. Further, the TGI in the test on SF-268 CNS, in the test with MCF7 breast, in the test with NCI-H460 lung, in the test with A549 NSCLC, in the test with PC-3 prostate and in the test on SNB-75 CNS was greater than 100 µM in each case. Besides, the TGI in the test on SF-295 CNS, in the test with UO-31 renal, in the test on ACHN renal and in the test on EKVX NSCLC was greater than 100 µM each time.
As to `Cn1cc(-c2csc(-c3cn(C)c4ccc(F)cc34)n2)c2cnccc21`, the GI50 in the test on SF-268 CNS was 1.93 µM; with MCF7 breast it was 1.93 µM; in the test with NCI-H460 lung, 1.97 µM; in the test on A549 NSCLC, 1.67 µM; in the test on PC-3 prostate it was 1.71 µM; in the test with SNB-75 CNS, 1.4 µM. Besides, the GI50 in the test with SF-295 CNS was 1.71 µM; with UO-31 renal it was 1.64 µM; with ACHN renal, 1.84 µM; in the test on EKVX NSCLC it was 1.87 µM. Moreover, the TGI was determined as 3.79 µM in the test with SF-268 CNS; 3.66 µM with MCF7 breast; 3.71 µM in the test on NCI-H460 lung; 3.27 µM with A549 NSCLC; 3.31 µM in the test with PC-3 prostate; 2.74 µM in the test on SNB-75 CNS. In addition, the TGI with SF-295 CNS is 3.23 µM; with UO-31 renal, 3.09 µM; with ACHN renal it was 3.26 µM; with EKVX NSCLC, 3.7 µM.
`COc1ccc(-c2cc(Nc3ccnc(N4CCOCC4)n3)on2)cc1`: the GI50 in the test with SF-268 CNS was 1.85 µM; in the test with MCF7 breast, 0.258 µM; with NCI-H460 lung, 0.24 µM; in the test on A549 NSCLC, 0.224 µM; in the test with PC-3 prostate, 0.241 µM; in the test on SNB-75 CNS it was 0.1 µM. In addition, the GI50 in the test on SF-295 CNS is 0.171 µM; in the test on UO-31 renal, 0.742 µM; in the test with ACHN renal, 0.74 µM; in the test with EKVX NSCLC, 0.685 µM. The TGI in the test on SF-268 CNS is 18.1 µM; in the test with MCF7 breast, 12.3 µM; with NCI-H460 lung, 10.4 µM; with A549 NSCLC, 12.1 µM; in the test on PC-3 prostate it was 24.2 µM; in the test on SNB-75 CNS, 0.576 µM. Also, the TGI in the test on SF-295 CNS is 5.95 µM; in the test on UO-31 renal, 13.8 µM; in the test on ACHN renal, 13.6 µM; with EKVX NSCLC, 17 µM.
As for `c1ccc(NCCSc2nc3ccccc3s2)cc1`, the TGI in the test on SF-268 CNS, in the test on MCF7 breast, in the test with NCI-H460 lung, in the test with A549 NSCLC, in the test on PC-3 prostate and in the test with SNB-75 CNS was greater than 100 µM in each case. Further, the TGI in the test on SF-295 CNS, in the test with UO-31 renal, in the test with ACHN renal and in the test on EKVX NSCLC was greater than 100 µM in each case.

Values taken from PubChem BioAssay (NCI).
